{"source": "patent EP4818317A1", "about": "“POLYPEPTIDE FOR BIOSYNTHESIS OF 1,2-PROPANEDIOL AND USE THEREOF” (Tianjin University, priority 2023, dated 2025)", "molecules": {"B1": {"name": "Escherichia coli strain K12 1,5-anhydromannitol-6-phosphate isomerase EcPflD (Uniprot P32674), SEQ ID NO: 98 (Escherichia coli K-12) (protein)", "chain": "MTNRISRLKTALFANTREISLERALLYTASHRQTEGEPVILRRAKATAYILEHVEISIRDEELIAGNRTVKPRAGIMSPEMDPYWLLKELDQFPTRPQDRFAISEEDKRIYREELFPYWEKRSMKDFINGQMTDEVKAATNTQIFSINQTDKGQGHIIIDYPRLLNHGLGELVAQMQQHCQQQPENHFYQAALLLLEASQKHILRYAELAETMAANCTDAQRREELLTIAEISRHNAQHKPQTFWQACQLFWYMNIILQYESNASSLSLGRFDQYMLPFYQTSLTQGEDAAFLKELLESLWVKCNDIVLLRSTSSARYFAGFPTGYTALLGGLTENGRSAVNVLSFLCLDAYQSVQLPQPNLGVRTNALIDTPFLMKTAETIRFGTGIPQIFNDEVVVPAFLNRGVSLEDARDYSVVGCVELSIPGRTYGLHDIAMFNLLKVMEICLHENEGNAALTYEGLLEQIRAKISHYITLMVEGSNICDIGHRDWAPVPLLSSFISDCLEKGRDITDGGARYNFSGVQGIGIANLSDSLHALKGMVFEQQRLSFDELLSVLKANFATPEGEKVRARLINRFEKYGNDIDEVDNISAELLRHYCKEVEKYQNPRGGYFTPGSYTVSAHVPLGSVVGATPDGRFAGEQLADGGLSPMLGQDAQGPTAVLKSVSKLDNTLLSNGTLLNVKFTPATLEGEAGLRKLADFLRAFTQLKLQHIQFNVVNADTLREAQQRPQDYAGLVVRVAGYSAFFVELSKEIQDDIIRRTAHQL"}}, "key": {"[1]": {"test_system": "Lactiplantibacillus plantarum 1,5-anhydroglucitol-6-phosphate isomerase LpYbiW (Uniprot A0A807DR53), SEQ ID NO: 2", "assay": "Michaelis-Menten kinetics of LpYbiW, coupled with LpFsaA and EcGldA, NADH consumption at A340nm", "type": "biochemical", "conditions": "100 nM activated LpYbiW, 20 mM Tris/HCl pH 7.5, 100 mM KCl, 5 µM LpFsaA, 5 µM EcGldA, 0.4 mM NADH, anaerobic glove box; substrate 1,5-anhydroglucitol-6-phosphate at varying concentrations", "experimental": "Continuous-wave X-band EPR spectroscopy was used to characterize the LpYbiW glycyl radical. A reaction system (200 µL) containing 20 mM Tris/HCl, (pH 7.5), 100 mM KCl, 100 µM titanium(III) citrate, 1 mM SAM, 80 µM reconstituted LpYbiY, and 40 µM LpYbiW was incubated for 15 minutes at room temperature in a glove box. 10% glycerol was added, and a resulting mixture was loaded into an EPR tube (Wilmad Lab Glass, 734-LPV-7) with an outer diameter of 4 mm and a length of 8 inches. The tube was sealed with a rubber stopper, removed from the glove box, and frozen using liquid nitrogen before EPR analysis. The experimental spectrum of the glycyl radical was modeled using Bruker Xepr spin fitting to obtain g-values, hyperfine coupling constants, and line widths. Double integration of the simulated spectrum was used to measure the spin concentration. […]\nThe Michaelis-Menten kinetic parameters of LpYbiW were determined by coupling with LpFsaA and EcGldA. The reaction rate of LpYbiW was monitored by measuring NADH consumption at A340nm. The absorbance change of the reaction system at 340 nm was measured every 5 seconds using the cuvette mode of an ultra-micro UV-visible spectrophotometer (Nanophotometer) in a glove box (1 cm light path). […]"}, "[2]": {"target": "T1, Escherichia coli strain K12 1,5-anhydromannitol-6-phosphate isomerase EcPflD (Uniprot P32674), SEQ ID NO: 98 (Escherichia coli, UniProt P32674)", "T1 sequence (P32674 1-765)": "B1 chain", "assay": "Michaelis-Menten kinetics of EcPflD, coupled with EcFsaB and EcGldA, decrease in A340nm", "type": "biochemical", "conditions": "40 nM activated EcPflD, 20 mM Tris/HCl pH 7.5, 100 mM KCl, 2 µM EcFsaB, 2 µM EcGldA, 0.4 mM NADH, anaerobic glove box; substrate 1,5-AM-6P at various concentrations", "experimental": "(§1) The EcPflD glycine radical was characterized using continuous-wave X-band electron paramagnetic resonance (EPR) spectroscopy. A reaction system (200 µL) containing 20 mM Tris/HCl, (pH 7.5), 100 mM KCl, 100 µM titanium(III) citrate, 1 mM SAM, 80 µM reconstituted EcPflC, and 40 µM EcPflD was incubated for 15 minutes at room temperature in a glove box. Glycerol (10%) was added, and a resulting mixture was transferred to an EPR tube with an outer diameter of 4 mm and a length of 8 inches (Wilmad Lab Glass, 734-LPV-7). The tube was sealed with a rubber stopper, removed from the glove box, and frozen in liquid nitrogen prior to EPR analysis. […]\n(§2) A reaction mixture containing 20 mM Tris/HCl, (pH 7.5), 100 mM KCl, 10 mM 1,5-AM-6P, 40 nM activated EcPflD, 5 µM EcFsaB, 5 µM EcGldA, and 0.4 mM NADH was incubated in a 1 cm Eppendorf cuvette in a glove box at room temperature. Absorbance at 340 nm was monitored every 5 seconds using a cuvette mode of an ultra-micro UV-Vis spectrophotometer (Hangzhou Miu Instruments Co., Ltd.) inside the glove box. […]\n(§3) The reaction system containing 20 mM Tris/HCl, (pH 7.5), 100 mM KCl, 40 nM activated EcPflD and 1,5-AM-6P with various substrate concentrations, 2 µM EcFsaB, 2 µM EcGldA, and 0.4 mM NADH was measured using a cuvette mode of an ultra-micro UV-Vis spectrophotometer (Hangzhou Miu Instruments Co., Ltd.) in a 1 cm Eppendorf cuvette inside a glove box. […]"}, "[3]": {"substrate": "O=P(O)(O)OC[C@H]1OC[C@@H](O)[C@@H](O)[C@@H]1O", "assay": "Michaelis-Menten kinetics of EcPflD, coupled with EcFsaB and EcGldA, decrease in A340nm", "type": "biochemical, Escherichia coli strain K12", "conditions": "other: 40 nM activated EcPflD, 20 mM Tris/HCl pH 7.5, 100 mM KCl, 2 µM EcFsaB, 2 µM EcGldA, 0.4 mM NADH, anaerobic glove box, substrate 1,5-AM-6P at various concentrations", "experimental": "as §1, §2, §3"}}, "data": [{"molecule": "O=P(O)(O)OC[C@H]1OC[C@H](O)[C@@H](O)[C@@H]1O", "note": "[1,5-AG-6P, 1,5-anhydroglucitol-6-phosphate]", "values": [{"measurement": "Km", "setting": "[1]", "result": "36.5 ± 6.66", "unit": "mM"}, {"measurement": "kcat", "setting": "[1]", "result": "43.38 ± 2.96", "unit": "s^-1/LpYbiW"}]}, {"molecule": "O=P(O)(O)OC[C@H]1OC[C@@H](O)[C@@H](O)[C@@H]1O", "note": "[1,5-AM-6P, 1,5-anhydromannitol-6-phosphate]", "values": [{"measurement": "kcat", "setting": "[2]", "result": "33.47 ± 0.79", "unit": "s^-1/EcPflD"}]}, {"molecule": "B1", "values": [{"measurement": "Km", "setting": "[3]", "result": "1.33 ± 0.12", "unit": "mM"}]}]}
